Results as given in patent US11083735B2, “Methods for treating sleep disorders, sleep disturbances, and related symptoms using aminosterol compositions” (Enterin, Inc., priority 2017, dated 2021).
Where “and” joins values, the source holds several entries; their conditions need not be identical. Identical values can stand only once.

How the values were obtained:
patients with PD [1] = assay: Phase 2 trial Stage 2: sleep diary (total sleep time, arm or leg thrashing / RBD); type: in vivo, human
Experimental: FIG. 18 is a chart of total sleep time in relation to squalamine dose. Total sleep time was obtained from the sleep diary by subtracting awake time during the night from total time spent in bed. Total sleep time per night was logged for each patient at baseline, each dosing period and at washout, and the means were determined. The light grey bar represents the baseline value for each cohort at a given dose level and the dark grey bar represents the value for the same cohort at the stated dose of squalamine (ENT-01; Kenterin™). The number of patients represented at each value are: Baseline, 33; 75 mg, 21; 100 mg, 28; 125 mg, 18; 150 mg, 15; 175 mg, 12; 200 mg, 7; 225 mg, 3; 250 mg, 2; washout, 33. P values were as follows: 75 mg, p=0.4; 100 mg, p=0.1; 125 mg, p=0.3; 150 mg, p=0.07; 175 mg, p=0.03; 200 mg, p=0.3; 225 mg, p=0.5; 250 mg, p=0.3; wash-out, p=0.04 (paired t test).
The frequency of arm or leg thrashing reported in the sleep diary diminished progressively from 2.2 episodes/week at baseline to 0 at maximal dose.
(5) Sleep Diary (participants completed a sleep diary on a daily basis throughout the study. The diaries included time into bed and estimated time to sleep as well as wake time and duration during the night.);
(§1) Exploratory end-points, in addition to constipation, included for example, (i) depression assessed using the Beck Depression Inventory (BDI-II) (Steer et al. 2000) and Unified Parkinson's Disease Rating Scale (UPDRS); (ii) cognition assessed using the Mini Mental State Examination (MMSE) (Palsteia et al. 2018), Unified Parkinson's Disease Rating Scale (UPDRS), and Trail Making Test (TMT); (iii) sleep and REM-behavior disorder (RBD) using a daily sleep diary, I-Button Temperature Assessment, a REM sleep behavior disorder (RBD) questionnaire (RBDQ) (Stiasny-Kolster et al. 2007), and the UPDRS; (iv) hallucinations assessed using the PD hallucinations questionnaire (PDHQ) (Papapetropoulos et al. 2008), the UPDRS, and direct questioning; (v) fatigue using the Parkinson's Disease Fatigue Scale (PFS-16) and the UPDRS; (vi) motor functions using the UPDRS; and (vii) non-motor functions using the UPDRS.

patients with PD [2] = assay: Phase 2 trial Stage 2: CNS symptoms (UPDRS, MMSE, BDI-II, PDHQ, hallucinations); type: in vivo, human
Source text: (8) Beck Depression Inventory (BDI-II);
(9) Unified Parkinson's Disease Rating Scale (UPDRS), which consists of 42 items in four subscales (Part I=Non-Motor Aspects of Experiences of Daily Living (nM-EDL) (1.1 cognitive impairment, 1.2 hallucinations and psychosis, 1.3 depressed mood, Part II=Motor Aspects of Experiences of Daily Living (M-EDL), Part III=Motor Examination, and Part IV=Motor Complications;
(10) Mini Mental State Examination (MMSE);
(12) The University of Miami Parkinson's Disease Hallucinations Questionnaire (UM-PDHQ);
as §1
Assessments were made at baseline and at the end of the fixed dose and washout periods. Circadian system status was evaluated by continuously monitoring wrist skin temperature (Thermochron iButton DS1921H; Maxim, Dallas) following published procedures (Sarabia et al. 2008).
CNS Symptoms in Stage 2: An exploratory analysis was done with respect to the sleep data, the body temperature data, mood, fatigue, hallucinations, cognition and other motor and non-motor symptoms of PD. Continuous measurements within a subject were compared with a paired t-test and continuous measurements between subject groups were compared with a two-group t-test. Categorical data were compared with a chi-squared test or a Fisher's exact test if the expected cell counts are too small for a chi-squared test.
CNS symptoms: CNS symptoms were evaluated at baseline and at the end of the fixed dose period and the wash-out period (Table 16). Total UPDRS score was 64.4 at baseline, 60.6 at the end of the fixed dose period and 55.7 at the end of the wash-out period (p=0.002); similarly, the motor component of the UPDRS improved from 35.3 at baseline to 33.3 at the end of fixed dose to 30.2 at the end of wash-out (p=0.006). MMSE improved from 28.4 at baseline to 28.7 during treatment and to 29.3 during wash-out (p=0.0006). […] PDHQ improved from 1.3 at baseline to 1.8 during treatment and 0.9 during wash-out (p=0.03). Hallucinations were reported by 5 patients at baseline and delusions in 1 patient. […] The frequency of arm or leg thrashing reported in the sleep diary diminished progressively from 2.2 episodes/week at baseline to 0 at maximal dose. […] Unlike stool-related indices, the improvement in many CNS symptoms persisted during wash-out.

CC(C)[C@@H](CC[C@@H](C)[C@H]1CC[C@H]2[C@@H]3[C@H](O)C[C@H]4C[C@@H](NCCCNCCCCN)CC[C@]4(C)[C@H]3CC[C@]12C)OS(=O)(=O)O (single isomer, unassigned; ent-01) [ENT-01]
increase of total sleep time (patients with PD [1]; 250 mg vs baseline): 18% | Total sleep time (patients with PD [1]; at 250 mg, baseline 7.1): 8.4 h | improvement of arm or leg thrashing frequency (patients with PD [1]; at maximal dose vs baseline): 100% | frequency of arm or leg thrashing reported in the sleep diary (patients with PD [1]; at maximal dose, baseline 2.2): 0 episodes/week | Total sleep time (patients with PD [1]; beyond 125 mg): consistently higher than baseline | PDHQ, Fixed dose (Mean, SD) (patients with PD [2]; Stage 2, end of fixed dose period, baseline 1.3 (2.99)): 1.8 | BDI-II, Fixed dose (Mean, SD) (patients with PD [2]; Stage 2, end of fixed dose period, baseline 10.9 (7.12)): 9.9 | UPDRS Part 1 (NMS), Fixed dose (Mean, SD) (patients with PD [2]; Stage 2, end of fixed dose period, baseline 11.6 (6.51)): 10.6 | UPDRS Part 2 (Daily living), Fixed dose (Mean, SD) (patients with PD [2]; Stage 2, end of fixed dose period, baseline 14.9 (8.11)): 14.7 | MMSE, Fixed dose (Mean, SD) (patients with PD [2]; Stage 2, end of fixed dose period, baseline 28.4 (1.75)): 28.7 | UPDRS Part 3 (Motor), Fixed dose (Mean, SD) (patients with PD [2]; Stage 2, end of fixed dose period, baseline 35.3 (14.35)): 33.3 | UPDRS Total, Fixed dose (Mean, SD) (patients with PD [2]; Stage 2, end of fixed dose period, baseline 64.4 (23.72)): 60.6 | PDHQ, Wash-out (Mean, SD) (patients with PD [2]; Stage 2, end of wash-out period, baseline 1.3 (2.99)): 0.9 (2.33) | BDI-II, Wash-out (Mean, SD) (patients with PD [2]; Stage 2, end of wash-out period, baseline 10.9 (7.12)): 8.7 (5.19) | UPDRS Part 1 (NMS), Wash-out (Mean, SD) (patients with PD [2]; Stage 2, end of wash-out period, baseline 11.6 (6.51)): 9.5 (5.27) | UPDRS Part 2 (Daily living), Wash-out (Mean, SD) (patients with PD [2]; Stage 2, end of wash-out period, baseline 14.9 (8.11)): 14.1 (8.21) | MMSE, Wash-out (Mean, SD) (patients with PD [2]; Stage 2, end of wash-out period, baseline 28.4 (1.75)): 29.3 (1.06) | UPDRS Part 3 (Motor), Wash-out (Mean, SD) (patients with PD [2]; Stage 2, end of wash-out period, baseline 35.3 (14.35)): 30.2 (13.23) | UPDRS Total, Wash-out (Mean, SD) (patients with PD [2]; Stage 2, end of wash-out period, baseline 64.4 (23.72)): 55.7 (23.69) | hallucinations in one patient (patients with PD [2]; at 100 mg (prokinetic dose of this patient 175 mg)): disappeared | BDI-II (patients with PD [2]; at wash-out): 8.7 | patients in whom hallucinations and delusions improved or disappeared (patients with PD [2]; during treatment): 5 of 6 | PDHQ (patients with PD [2]; during treatment, baseline 1.3): 1.8 | BDI-II (patients with PD [2]; during treatment, baseline 10.9): 9.9 | MMSE (patients with PD [2]; during treatment, baseline 28.4): 28.7 | MMSE (patients with PD [2]; during wash-out): 29.3 | PDHQ (patients with PD [2]; during wash-out): 0.9 | motor component of the UPDRS (patients with PD [2]; end of fixed dose, baseline 35.3): 33.3 | Total UPDRS score (patients with PD [2]; end of the fixed dose period, baseline 64.4): 60.6 | Total UPDRS score (patients with PD [2]; end of the wash-out period): 55.7 | motor component of the UPDRS (patients with PD [2]; end of wash-out): 30.2 | time free of hallucinations following cessation of dosing (patients with PD [2]; one patient): 1 month | time without return of hallucinations/delusions following discontinuation (patients with PD [2]; single patients): 4 weeks and 2 weeks
